Test results reported in PubChem BioAssay AID248 (DTP/NCI, 2004).
Where “and” joins values, the source holds several entries; their conditions need not be identical. Equal entries are not always repeated. Toxic doses and inconclusive results are not listed. Rule as the data show it: active = T/C of 150% or more; inactive = T/C below 125%.

Test system: L1210 leukemia ip in BDF1 mice, survival T/C
Assay: NCI In Vivo Anticancer Drug Screen. Data for tumor model L1210 Leukemia (intraperitoneal) in B6D2F1 (BDF1) mice
Settings: endpoint: mean survival time, higher = longer survival
How it was run: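 Transplanted-tumor mice were given test agent; controls received vehicle only. Survival readings from the two groups were divided (treated over control).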

[1] = dose: 100.0 mg/kg/injection, schedule: Q01DX009 (ip), vehicle: carboxymethylcellulose (CMC)
[2] = dose: 100.0 mg/kg/injection, schedule: Q04DX002 (ip), vehicle: carboxymethylcellulose (CMC)
[3] = dose: 100.0 mg/kg/injection, schedule: Q04DX003 (ip), vehicle: carboxymethylcellulose (CMC)
[4] = dose: 200.0 mg/kg/injection, schedule: Q01DX009 (ip), vehicle: carboxymethylcellulose (CMC)
[5] = dose: 200.0 mg/kg/injection, schedule: Q04DX002 (ip), vehicle: carboxymethylcellulose (CMC)
[6] = dose: 200.0 mg/kg/injection, schedule: Q04DX003 (ip), vehicle: carboxymethylcellulose (CMC)
[7] = dose: 400.0 mg/kg/injection, schedule: Q04DX002 (ip), vehicle: carboxymethylcellulose (CMC)
[8] = dose: 100.0 mg/kg/injection, schedule: Q01DX001 (ip), vehicle: saline with Tween-80
[9] = dose: 100.0 mg/kg/injection, schedule: Q04DX003 (ip), vehicle: Klucel (hydroxypropylcellulose) (HPC)
[10] = dose: 200.0 mg/kg/injection, schedule: Q04DX003 (ip), vehicle: Klucel (hydroxypropylcellulose) (HPC)
[11] = dose: 400.0 mg/kg/injection, schedule: Q04DX003 (ip), vehicle: Klucel (hydroxypropylcellulose) (HPC)
[12] = dose: 100.0 mg/kg/injection, schedule: Q01DX001 (ip), vehicle: saline
[13] = dose: 400.0 mg/kg/injection, schedule: Q01DX001 (ip), vehicle: saline

Measured: T/C

CCCCCCCC(=O)NCCCCC
inactive: dose: 50.0 mg/kg/injection, schedule: Q01DX001 (ip), vehicle: carboxymethylcellulose (CMC) 98 % of control | dose: 50.0 mg/kg/injection, schedule: Q01DX009 (ip), vehicle: carboxymethylcellulose (CMC) 97 % of control and 113 % of control | dose: 50.0 mg/kg/injection, schedule: Q04DX003 (ip), vehicle: carboxymethylcellulose (CMC) 103 % of control | dose: 100.0 mg/kg/injection, schedule: Q01DX001 (ip), vehicle: carboxymethylcellulose (CMC) 105 % of control | [1] 108 % of control | [2] 94 % of control | [3] 96 % of control | dose: 200.0 mg/kg/injection, schedule: Q01DX001 (ip), vehicle: carboxymethylcellulose (CMC) 100 % of control | [4] 104 % of control and 90 % of control | [5] 96 % of control | [6] 98 % of control | [7] 96 % of control

O=C(O)c1ccc(NCc2cccc(NCCCc3ccccc3)c2)cc1
inactive: [8] 92 % of control | dose: 200.0 mg/kg/injection, schedule: Q01DX001 (ip), vehicle: saline with Tween-80 92 % of control | dose: 400.0 mg/kg/injection, schedule: Q01DX001 (ip), vehicle: saline with Tween-80 93 % of control

NN1Cc2ccc3c4c(ccc(c24)C1)C=C3
inactive: dose: 15.0 mg/kg/injection, schedule: Q01DX001 (ip), vehicle: carboxymethylcellulose (CMC) 108 % of control | dose: 30.0 mg/kg/injection, schedule: Q01DX001 (ip), vehicle: carboxymethylcellulose (CMC) 97 % of control | dose: 60.0 mg/kg/injection, schedule: Q01DX001 (ip), vehicle: carboxymethylcellulose (CMC) 101 % of control

CCCCNC(=O)NC/C(Br)=C/Br
inactive: dose: 75.0 mg/kg/injection, schedule: Q01DX009 (ip), vehicle: Klucel (hydroxypropylcellulose) (HPC) 101 % of control | [9] 98 % of control | dose: 150.0 mg/kg/injection, schedule: Q01DX009 (ip), vehicle: Klucel (hydroxypropylcellulose) (HPC) 100 % of control | [10] 96 % of control | dose: 300.0 mg/kg/injection, schedule: Q01DX009 (ip), vehicle: Klucel (hydroxypropylcellulose) (HPC) 97 % of control | [11] 93 % of control

O=c1[nH]c(=O)n(C2SC(CO)C(O)C2O)cc1F (stereo not drawn)
inactive: dose: 18.8 mg/kg/injection, schedule: Q04DX003 (ip), vehicle: saline 102 % of control | dose: 37.5 mg/kg/injection, schedule: Q04DX003 (ip), vehicle: saline 94 % of control | dose: 50.0 mg/kg/injection, schedule: Q04DX003 (ip), vehicle: saline 94 % of control | dose: 100.0 mg/kg/injection, schedule: Q01DX005 (ip), vehicle: saline 97 % of control | dose: 200.0 mg/kg/injection, schedule: Q01DX005 (ip), vehicle: saline 95 % of control

NP(Cl)(c1ccccc1)(c1ccccc1)c1ccccc1
inactive: dose: 0.2 mg/kg/injection, schedule: Q04DX003 (ip), vehicle: Klucel (hydroxypropylcellulose) (HPC) 96 % of control | dose: 0.39 mg/kg/injection, schedule: Q04DX003 (ip), vehicle: Klucel (hydroxypropylcellulose) (HPC) 99 % of control | dose: 0.78 mg/kg/injection, schedule: Q04DX003 (ip), vehicle: Klucel (hydroxypropylcellulose) (HPC) 97 % of control

O=NN(CCCl)C(=O)Nc1ccc2c3c(cccc13)-c1ccccc1-2
inactive: dose: 118.0 mg/kg/injection, schedule: Q01DX009 (ip), vehicle: carboxymethylcellulose (CMC) 111 % of control | dose: 177.0 mg/kg/injection, schedule: Q01DX009 (ip), vehicle: carboxymethylcellulose (CMC) 119 % of control | dose: 266.0 mg/kg/injection, schedule: Q01DX009 (ip), vehicle: carboxymethylcellulose (CMC) 113 % of control | dose: 600.0 mg/kg/injection, schedule: Q01DX001 (ip), vehicle: carboxymethylcellulose (CMC) 117 % of control | dose: 600.0 mg/kg/injection, schedule: Q01DX009 (ip), vehicle: carboxymethylcellulose (CMC) 98 % of control

Cc1cc[n+]([O-])cc1
inactive: [12] 100 % of control | dose: 100.0 mg/kg/injection, schedule: Q01DX009 (ip), vehicle: saline 98 % of control | dose: 100.0 mg/kg/injection, schedule: Q04DX003 (ip), vehicle: saline 94 % of control | dose: 200.0 mg/kg/injection, schedule: Q01DX001 (ip), vehicle: saline 98 % of control | dose: 200.0 mg/kg/injection, schedule: Q01DX009 (ip), vehicle: saline 101 % of control | dose: 200.0 mg/kg/injection, schedule: Q04DX003 (ip), vehicle: saline 102 % of control | [13] 98 % of control | dose: 400.0 mg/kg/injection, schedule: Q01DX009 (ip), vehicle: saline 98 % of control | dose: 400.0 mg/kg/injection, schedule: Q04DX003 (ip), vehicle: saline 98 % of control

CC(=O)N1C=Cc2ccccc2C1C1c2ccccc2C=CN1C(C)=O (stereo not drawn)
inactive: [9] 98 % of control | [10] 96 % of control | [11] 93 % of control

CCCCCC(=O)N(CC)C(=NCC)c1ccc(NC(=O)c2ccc(C(=O)Nc3ccc(C(=NCC)N(CC)C(=O)CCCCC)cc3)cc2)cc1
inactive: dose: 3.12 mg/kg/injection, schedule: Q01DX015 (ip), vehicle: methylcellulose (MC) 100 % of control | dose: 6.25 mg/kg/injection, schedule: Q01DX015 (ip), vehicle: methylcellulose (MC) 102 % of control | dose: 12.5 mg/kg/injection, schedule: Q01DX015 (ip), vehicle: methylcellulose (MC) 94 % of control | dose: 25.0 mg/kg/injection, schedule: Q01DX015 (ip), vehicle: methylcellulose (MC) 88 % of control | dose: 50.0 mg/kg/injection, schedule: Q01DX015 (ip), vehicle: methylcellulose (MC) 100 % of control | dose: 100.0 mg/kg/injection, schedule: Q01DX015 (ip), vehicle: methylcellulose (MC) 100 % of control | dose: 200.0 mg/kg/injection, schedule: Q01DX015 (ip), vehicle: methylcellulose (MC) 90 % of control | dose: 400.0 mg/kg/injection, schedule: Q01DX015 (ip), vehicle: methylcellulose (MC) 90 % of control

CCC(O)(CC)C(C)C
inactive: dose: 90.0 mg/kg/injection, schedule: Q01DX001 (ip), vehicle: saline 97 % of control | [12] 102 % of control | dose: 130.0 mg/kg/injection, schedule: Q01DX001 (ip), vehicle: saline 92 % of control | dose: 300.0 mg/kg/injection, schedule: Q01DX001 (ip), vehicle: saline 96 % of control | [13] 96 % of control

CC(=Nc1ccc(NC(=O)c2ccc(C(=O)Nc3ccc(N=C(C)Nc4ccccc4)cc3)cc2)cc1)Nc1ccccc1
inactive: dose: 15.0 mg/kg/injection, schedule: Q01DX Z (ip), vehicle: saline 93 % of control | dose: 30.0 mg/kg/injection, schedule: Q01DX Z (ip), vehicle: saline 92 % of control | dose: 60.0 mg/kg/injection, schedule: Q01DX Z (ip), vehicle: saline 97 % of control | dose: 120.0 mg/kg/injection, schedule: Q01DX Z (ip), vehicle: saline 93 % of control

CCCCCCCCCCCCCCCCCCNC(=O)Nc1cccc2ccccc12
inactive: [1] 87 % of control | dose: 100.0 mg/kg/injection, schedule: Q04DX002 (ip), vehicle: Klucel (hydroxypropylcellulose) (HPC) 101 % of control | [2] 87 % of control | [3] 106 % of control | [4] 87 % of control | dose: 200.0 mg/kg/injection, schedule: Q04DX002 (ip), vehicle: Klucel (hydroxypropylcellulose) (HPC) 101 % of control | [5] 93 % of control and 95 % of control | [6] 96 % of control | dose: 400.0 mg/kg/injection, schedule: Q01DX009 (ip), vehicle: carboxymethylcellulose (CMC) 94 % of control and 97 % of control | [7] 93 % of control and 88 % of control | dose: 400.0 mg/kg/injection, schedule: Q04DX003 (ip), vehicle: carboxymethylcellulose (CMC) 90 % of control

O=[N+]([O-])c1ccc(N/N=C/c2ccc(N(CCO)CCO)cc2)c([N+](=O)[O-])c1
inactive: dose: 25.0 mg/kg/injection, schedule: Q01DX001 (ip), vehicle: saline with Tween-80 88 % of control | dose: 50.0 mg/kg/injection, schedule: Q01DX001 (ip), vehicle: saline with Tween-80 90 % of control | [8] 98 % of control

c1ccc2cc(SCN3CCOCC3)ccc2c1
inactive: [9] 97 % of control | [10] 101 % of control | [11] 97 % of control
